Patent publication US10208030B2, “GPR119 agonist compounds” (Mankind Pharma Ltd., priority 2016, dated 2019)

Experiments:
Male C57BL/6 mice = test: Oral glucose tolerance test in C57BL/6 mice; assay type: in vivo; conditions: 3 mpk and 10 mpk oral
Description: (§1) Male C57BL/6 mice (8-10 weeks) were grouped based on basal glucose levels and animals were fasted for 16 hours. Glucose level of each animal was estimated in blood collected from tail vein before animals were dosed orally with 0.5% Tween 80 and 0.5% NaCMC (vehicle control) and compounds at 3 and 10 mpk (n=5). After 30 minutes of compound dosing, blood glucose was again estimated and 2 g/kg/10 ml (20%) of Glucose solution was administered orally to all the animals. Blood glucose was estimated at 15, 30, 60, 90 and 120 minutes time points after glucose administration. Accu-Check active blood glucose meter was utilised for estimation of blood from tail vein.
Glucose reduction observed in animals treated with compounds of present invention is represented in terms of % AUC reduction. A greater glucose reduction in oral glucose tolerance test indicates the compound's efficacy in this rodent species.

hGPR119 = target: T1, hGPR119 (Homo sapiens, UniProt Q8TDV5); test: In vitro cyclic AMP assay (Cisbio HTRF) in CHO-hGPR119 cells; assay type: cell-based; conditions: cAMP; for activation at 1 µM: 1 h, 60 min, read-out: Induction (% induction at 1 μM); for EC50: class symbols, legend not given
T1 construct: expressed in transfected cells; host or cells: CHO cells (CHO-hGPR119)
T1 sequence (Q8TDV5 1-335): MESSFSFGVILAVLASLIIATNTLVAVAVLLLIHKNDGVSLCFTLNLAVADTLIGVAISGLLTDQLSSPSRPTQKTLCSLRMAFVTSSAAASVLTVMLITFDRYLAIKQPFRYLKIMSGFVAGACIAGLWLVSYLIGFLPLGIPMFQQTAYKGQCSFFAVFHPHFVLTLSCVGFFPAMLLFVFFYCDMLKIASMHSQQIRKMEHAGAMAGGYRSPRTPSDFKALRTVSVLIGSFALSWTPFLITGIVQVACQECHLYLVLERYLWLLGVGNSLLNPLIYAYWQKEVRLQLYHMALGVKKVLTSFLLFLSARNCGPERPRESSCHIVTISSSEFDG
Summary of the method: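 Cells plated at 5000/well and exposed to test compound dose series for 60 min at room temperature with 1 mM IBMX and 0.5% DMSO (final). Lysis with anti-cAMP antibody/d2-cAMP detection reagents, 1 h at room temperature; HTRF read at 665/620 nm (337 nm excitation); EC50 from concentration-response.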

Male SD rats = test: Oral glucose tolerance test in Sprague-Dawley rats; assay type: in vivo; conditions: 3 mpk and 10 mpk oral
Description: as §1, with “SD rats” for “C57BL/6 mice”
Glucose reduction observed in animals treated with GPR119 agonists is represented in terms of % AUC reduction. A greater glucose reduction in oral glucose tolerance test indicates the compound's efficacy in this rodent species.

| activation at 1 µM (hGPR119) [%] | EC50 (hGPR119) | Structure (SMILES) | glucose reduction (% AUC reduction) in oral glucose tolerance test (Male C57BL/6 mice) | glucose reduction (% AUC reduction) in oral glucose tolerance test (Male SD rats) |
| --- | --- | --- | --- | --- |
| 76 | A++ | CC(Oc1nn2cc(-c3ccc(S(C)(=O)=O)cc3F)nc2s1)C1CCN(c2ncc(Cl)cn2)CC1 (stereo in doubt) [Compound 1090, 2-((S)-1-(1-(5-chloropyrimidin-2-yl)piperidin-4-yl)ethoxy)-6-(2-fluoro-4-(methylsulfonyl)phenyl)imidazo[2,1-b][1,3,4]thiadiazole] | significant dose dependent glucose reduction | significant dose dependent glucose reduction |
| 68 | A++ | CC(C)c1noc(N2CCC([C@@H](C)Oc3nn4cc(-c5ccncc5)nc4s3)CC2)n1 [Compound 1059, (R)-3-isopropyl-5-(4-(1-((6-(pyridin-4-yl)imidazo[2,1-b][1,3,4]thiadiazol-2-yl)oxy)ethyl)piperidin-1-yl)-1,2,4-oxadiazole] | significant dose dependent glucose reduction | significant dose dependent glucose reduction |
| 55 | A++ | CCCc1cnc(N2CCC([C@H](C)Oc3nn4cc(-c5ccc(S(C)(=O)=O)cc5)nc4s3)CC2)nc1 [Compound 1067, (S)-6-(4-(methylsulfonyl)phenyl)-2-(1-(1-(5-propylpyrimidin-2-yl)piperidin-4-yl)ethoxy)imidazo[2,1-b][1,3,4]thiadiazole] | significant dose dependent glucose reduction | significant dose dependent glucose reduction |
| 75 | A++ | CC(C)c1noc(N2CCC([C@H](C)Oc3nn4cc(-c5cnc(Cl)nc5)nc4s3)CC2)n1 [Compound 1071, (S)-5-(4-(1-((6-(2-chloropyrimidin-5-yl)imidazo[2,1-b][1,3,4]thiadiazol-2-yl)oxy)ethyl)piperidin-1-yl)-3-isopropyl-1,2,4-oxadiazole] | significant dose dependent glucose reduction | significant dose dependent glucose reduction |
| 72 | A++ | CC(C)c1noc(N2CCC([C@H](C)Oc3nn4cc(-c5cnc(S(C)(=O)=O)nc5)nc4s3)CC2)n1 [Compound 1072, (S)-3-isopropyl-5-(4-(1-((6-(2-(methylsulfonyl)pyrimidin-5-yl)imidazo[2,1-b][1,3,4]thiadiazol-2-yl)oxy)ethyl)piperidin-1-yl)-1,2,4-oxadiazole] | significant dose dependent glucose reduction | significant dose dependent glucose reduction |
| 87 | A++ | CCc1cnc(N2CCC([C@H](C)Oc3nn4cc(-c5ccc(S(C)(=O)=O)cc5F)nc4s3)CC2)nc1 [Compound 1086, 2-((S)-1-(1-(5-ethylpyrimidin-2-yl)piperidin-4-yl)ethoxy)-6-(2-fluoro-4-(methylsulfonyl)phenyl)imidazo[2,1-b][1,3,4]thiadiazole] | significant dose dependent glucose reduction | significant dose dependent glucose reduction |
| 75 | – | CC(C)c1noc(N2CCC([C@@H](C)Oc3nn4cc(-c5cnc(Cl)cn5)nc4s3)CC2)n1 [Compound 1087, 2-((R)-1-(1-(3-isopropyl-1,2,4-oxadiazol-5-yl)piperidin-4-yl)ethoxy)-6-(5-chloropyrazin-2-yl)imidazo[2,1-b][1,3,4]thiadiazole] | significant dose dependent glucose reduction | significant dose dependent glucose reduction |
| 73 | A++ | CC(C)c1noc(N2CCC([C@@H](C)Oc3nn4cc(-c5ccc(S(C)(=O)=O)cc5F)nc4s3)CC2)n1 [Compound 1088, 2-((R)-1-(1-(3-isopropyl-1,2,4-oxadiazol-5-yl)piperidin-4-yl)ethoxy)-6-(2-fluoro-4-(methylsulfonyl)phenyl)imidazo[2,1-b][1,3,4]thiadiazole] | significant dose dependent glucose reduction | – |
| 33 | – | CC(C)c1noc(N2CCC(C(C)Oc3nn4cc(-c5ccc(S(C)(=O)=O)cc5C(F)(F)F)nc4s3)CC2)n1 (stereo not drawn) [Compound 1091, 2-(1-(1-(3-isopropyl-1,2,4-oxadiazol-5-yl)piperidin-4-yl)ethoxy)-6-(2-(trifluoromethyl)-4-(methylsulfonyl)phenyl)imidazo[2,1-b][1,3,4]thiadiazole] | – | significant dose dependent glucose reduction |
| 84 | – | CC(C)OC(=O)N1CCC(C(C)Oc2nn3cc(-c4ccc(S(C)(=O)=O)cc4F)nc3s2)CC1 (stereo not drawn) [Compound 1101, Isopropyl 4-(1-(6-(2-fluoro-4-(methylsulfonyl)phenyl)imidazo[2,1-b][1,3,4]thiadiazol-2-yloxy)ethyl)piperidine-1-carboxylate] | significant dose dependent glucose reduction | significant dose dependent glucose reduction |
| 70 | A++ | CC(C)OC(=O)N1CCC([C@H](C)Oc2nn3cc(-c4ccc(S(C)(=O)=O)cc4F)nc3s2)CC1 [Compound 1108, isopropyl 4-((S)-1-(6-(2-fluoro-4-(methylsulfonyl)phenyl)imidazo[2,1-b][1,3,4]thiadiazol-2-yloxy)ethyl)piperidine-1-carboxylate] | significant dose dependent glucose reduction | significant dose dependent glucose reduction |
| 55 | – | CNS(=O)(=O)c1ccc(-c2cn3nc(OC(C)C4CCN(c5nc(C(C)C)no5)CC4)sc3n2)c(F)c1 (stereo not drawn) [Compound 1109, 3-fluoro-4-(2-(1-(1-(3-isopropyl-1,2,4-oxadiazol-5-yl)piperidin-4-yl)ethoxy)imidazo[2,1-b][1,3,4]thiadiazol-6-yl)-N-methylbenzenesulfonamide] | significant dose dependent glucose reduction | significant dose dependent glucose reduction |
